Results from paper PMC10222203 (Pharmaceutics, 2023).

Columns and labels:
dynamin = system: dynamin; design: method as in PMID 16740485, PMID 24491918; conditions: cited from earlier work
[1] = system: brain-like endothelial cells (BLECs); experiment: in vitro; conditions: control, absence of peptide (0 nM)
Procedure: The in vitro BBB model, consisting of CD34^+ endothelial cells (ECs) derived from hematopoietic stem cells in co-culture with bovine brain pericytes, was established as described by Cecchelli et al.. Written and informed consent was obtained for the collection of human umbilical cord blood, in compliance with French legislation. […] All experiments were carried out in line with the authorized protocol.
These isolated CD34+ cells were cultured in EGM-2, supplemented with 20% (v:v) FBS and 50 ng/mL vascular endothelial growth factor on 1% (w:v) gelatine-coated 24-well plates (2 × 10^5 cells/well). After 15–20 days, ECs are seen in the culture dish. For each experiment, the cells were expanded in 1% (w:v) gelatine-coated T75 flasks (BD Biosciences, Le Pont-de-Claix, France) in EGM-2. Bovine brain pericytes were isolated and characterized as described by Vandenhaute et al.. Sub-clones were cultured in Dulbecco’s Modified Eagle’s Medium supplemented with 20% (v:v) FBS, 2 mM L-glutamine, 50 µg/mL gentamycin, and 1 ng/mL basic fibroblast growth factor. At confluency, 5 × 10^4 cells were seeded in ECM-5 with 5% (v:v) FBS, 50 µg/mL gentamycin, and 0.5% endothelial cell growth factor in gelatine-coated 12-well plates (Costar, Corning Inc., New York, NY, USA). CD34^+-derived ECs were seeded at 8 × 10^4 cells per Matrigel-coated (BD Biosciences) insert (3401, Corning Inc., NY, USA) and put in co-culture with the bovine brain pericytes, with the pericytes at the bottom of the well, for 6 days to achieve brain-like endothelial cell (BLEC) characteristics (Figure 4b).
At the beginning of the permeability experiments, inserts with BLEC monolayers were transferred to new abluminal (receiver) compartments previously filled with 1.5 mL of RH buffer, and 500 µL of the compounds dissolved in RH buffer, with the addition of the paracellular marker sodium fluorescein (NaFlu), were added to the luminal (donor) compartment. After 3 h of incubation at 37 °C, with a shaking velocity of 60 rpm, aliquots were taken from the donor and receiver compartment. The BLEC monolayers were washed twice with cold RH buffer and lysed with RLT Lysis buffer. The samples were kept at −20 °C pending analysis in low-binding tubes.
An increase in the permeability to NaFlu in the presence of the peptide can indicate an increase in paracellular leakage and consequent loss of barrier integrity. To evaluate the ability of test compounds to cross Matrigel-coated filters without cells and to control for the adsorption to plastics and/or Matrigel, the NaFlu and peptide’s permeability over inserts without cells were also assessed. Mass balance (M.B%) was calculated from the amount of compound recovered in both compartments at the end of the experiment divided by the total amount added to the donor compartment at the start of the experiment.
Samples from both compartments as well as the lysed endothelial cells were analysed for fluorescence using a Synergy H1 (Biotek) set to quantify NaFlu (wavelengths Excitation 490 nm and Emission 525 nm) and with UPLC-MS/MS to assess the permeability and cellular uptake of the peptides. All experiments were performed in triplicate (n = 3 independent experiments per concentration and cCPPs).
Papp is the apparent permeability, J is the rate of appearance of the compound in the receiver compartment (amount/sec), and C0 is the concentration in the donor compartment at the start of the experiment (amount/mL).

Compound	Decrease in dynamin activity (dynamin; 50 µM) [%]	IC50 (dynamin) [µM]	Permeability (Pe) to sodium fluorescein, mean [1]
O=C(N/N=C/c1ccc(O)c(O)c1)c1cc2ccccc2cc1O [Dynasore, dynasore]	70	15	
O=C([O-])c1ccccc1-c1c2ccc(=O)cc-2oc2cc([O-])ccc12.[Na+].[Na+] [sodium fluorescein, reference compound]			0,46 10‐3 cm/min
